According to patent publication US10745719B2, “Enzymes and methods for dealkylation of substrates” (Alliance for Sustainable Energy, LLC, priority 2015, dated 2020):

Experiments:
[1] = test system: P. putida KT2440/pCJ021; experiment: Growth on and metabolism of aromatic substrate by P. putida KT2440/pCJ021 (cytochrome P450 O-dealkylase and reductase) in M9 minimal medium; format: cell-based, Pseudomonas putida
Text: (§1) The genes encoding the cytochrome P450 protein and the co-transcribed reductase were amplified from Amycolatopsis sp. ATCC 39116 DNA using primers oCJ169 and oCJ170 (see Table 2) and the product assembled using Gibson Assembly Master Mix (New England BioLabs) into the broad host-range vector pBTL-2, which was amplified using primers oCJ160 and oCJ161, resulting in pCJ021. pBTL-2 (a gift from Ryan Gill; Addgene plasmid #22806) is a broad host-range vector that drives expression of inserted genes using the lac promoter, which is constitutively expressed in Pseudomonas putida KT2440. The cytochrome P450 gene alone was also amplified using oCJ169 and oCJ206 and assembled it into the same vector (resulting in pCJ024). pCJ021 was then transformed into P. putida KT2440 to generate P. putida KT2440/pCJ021.
HPLC analysis was performed by injecting 6 μL of 0.2 μm filtered culture supernatant onto an Agilent 1100 series system equipped with a Phenomenex Rezex RFQ-Fast Acid H+ (8%) column and a cation H+ guard cartridge (Bio-Rad Laboratories) at 85° C. run using a mobile phase of 0.01 N sulfuric acid at a flow rate of 1.0 mL/min and a diode array detector to measure absorbance at 210 nm. Analytes were identified by comparing retention times and spectral profiles with pure standards. HPLC chromatograms show milli-absorbance units (mAU) on the Y axis and retention time (minutes) on the X axis.
(§2) P. putida KT2440 can readily metabolize catechol for growth, so a functional enzyme with O-dealkylase activity would convert guaiacol or guaethol to catechol and enable this organism to metabolize guaiacol or guaethol for growth, which it is not natively capable of.
HPLC analyses show the disappearance of guaiacol in a culture of P. putida KT2440/pCJ021 grown on M9 minimal medium containing guaiacol and the lack of guaiacol catabolism by native P. putida KT2440 (FIG. 6).

[2] = test system: P. putida KT2440 transformed with pCJ024; experiment: Metabolism of guaiacol by P. putida KT2440 transformed with pCJ024 (cytochrome P450 gene alone); format: cell-based, Pseudomonas putida; conditions: M9 minimal medium, 5 mM guaiacol
Text: as §1, §2

[3] = 5 mM guaiacol as sole source of carbon and energy

CCOc1ccccc1O [guaethol, 2-ethoxyphenol]
metabolism of substrate ([1]; 5 mM guaethol as sole source of carbon and energy, 72 hours): able to metabolize the guaethol
OD600 reached ([1]; 5 mM guaethol, growth on the catechol produced): 7

COc1ccccc1O [guaiacol, 2-methoxyphenol]
OD600 reached [1, 3]: over 0.5
metabolism of substrate [1, 3]: metabolizing the guaiacol completely
metabolism of substrate [2]: neither of these strains was able to metabolize guaiacol
